Measurements taken from PubChem BioAssay (NCI).
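Step 1: Grow cells in 96-well plates. Step 2: Expose to compound for 48 hours at 5 concentrations. Step 3: Interpolate endpoints linearly; if unreached, use highest concentration. TGI marks complete inhibition of growth.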

Experiments:
Test in all cases: NCI-60 cell line screen, 48 h
786-0 renal = test system: 786-0 renal
A498 renal = test system: A498 renal
A549 NSCLC = test system: A549 NSCLC
ACHN renal = test system: ACHN renal
BT-549 breast = test system: BT-549 breast
CAKI-1 renal = test system: CAKI-1 renal
CCRF-CEM leukemia = test system: CCRF-CEM leukemia
COLO 205 colon = test system: COLO 205 colon
DU-145 prostate = test system: DU-145 prostate
EKVX NSCLC = test system: EKVX NSCLC
HCT-116 colon = test system: HCT-116 colon
HCT-15 colon = test system: HCT-15 colon
HL-60(TB) leukemia = test system: HL-60(TB) leukemia
HOP-62 NSCLC = test system: HOP-62 NSCLC
HS 578T breast = test system: HS 578T breast
HT29 colon = test system: HT29 colon
IGROV1 ovarian = test system: IGROV1 ovarian
K-562 leukemia = test system: K-562 leukemia
KM12 colon = test system: KM12 colon
M14 melanoma = test system: M14 melanoma
MALME-3M melanoma = test system: MALME-3M melanoma
MDA-MB-231 breast = test system: MDA-MB-231 breast
MDA-MB-435 = test system: MDA-MB-435
MDA-N = test system: MDA-N
MOLT-4 leukemia = test system: MOLT-4 leukemia
NCI-H226 lung = test system: NCI-H226 lung
NCI-H23 lung = test system: NCI-H23 lung
NCI-H460 lung = test system: NCI-H460 lung
NCI-H522 lung = test system: NCI-H522 lung
NCI/ADR-RES ovarian = test system: NCI/ADR-RES ovarian
OVCAR-3 ovarian = test system: OVCAR-3 ovarian
OVCAR-4 ovarian = test system: OVCAR-4 ovarian
OVCAR-5 ovarian = test system: OVCAR-5 ovarian
OVCAR-8 ovarian = test system: OVCAR-8 ovarian
PC-3 prostate = test system: PC-3 prostate
RPMI-8226 leukemia = test system: RPMI-8226 leukemia
RXF 393 renal = test system: RXF 393 renal
SF-268 CNS = test system: SF-268 CNS
SF-295 CNS = test system: SF-295 CNS
SK-MEL-2 melanoma = test system: SK-MEL-2 melanoma
SK-MEL-28 melanoma = test system: SK-MEL-28 melanoma
SK-MEL-5 melanoma = test system: SK-MEL-5 melanoma
SK-OV-3 ovarian = test system: SK-OV-3 ovarian
SN12C renal = test system: SN12C renal
SNB-19 CNS = test system: SNB-19 CNS
SNB-75 CNS = test system: SNB-75 CNS
SW-620 colon = test system: SW-620 colon
TK-10 renal = test system: TK-10 renal
U251 CNS = test system: U251 CNS
UACC-257 melanoma = test system: UACC-257 melanoma
UACC-62 melanoma = test system: UACC-62 melanoma
UO-31 renal = test system: UO-31 renal

Measured: TGI

CCCN=C1CC(C)Nc2ccccc2N1 (configuration not stated)
> 100 µM: 786-0 renal | A498 renal | A549 NSCLC | ACHN renal | BT-549 breast | CAKI-1 renal | CCRF-CEM leukemia | COLO 205 colon | DU-145 prostate | EKVX NSCLC | HCT-116 colon | HCT-15 colon | HL-60(TB) leukemia | HOP-62 NSCLC | HS 578T breast | HT29 colon | IGROV1 ovarian | K-562 leukemia | KM12 colon | M14 melanoma | MALME-3M melanoma | MDA-MB-231 breast | MDA-MB-435 | MDA-N | MOLT-4 leukemia | NCI-H226 lung | NCI-H23 lung | NCI-H460 lung | NCI-H522 lung | NCI/ADR-RES ovarian | OVCAR-3 ovarian | OVCAR-4 ovarian | OVCAR-5 ovarian | OVCAR-8 ovarian | PC-3 prostate | RPMI-8226 leukemia | RXF 393 renal | SF-268 CNS | SF-295 CNS | SK-MEL-2 melanoma | SK-MEL-28 melanoma | SK-MEL-5 melanoma | SK-OV-3 ovarian | SN12C renal | SNB-19 CNS | SNB-75 CNS | SW-620 colon | TK-10 renal | U251 CNS | UACC-257 melanoma | UACC-62 melanoma | UO-31 renal
